Source: patent US8076487B2, “Pyridone derivative and herbicide” (Kumiai Chemical Industry Co., Ltd., priority 2006, dated 2011)

Columns and labels:
Format in all cases: in vivo
[1] = test system: Japanese bulrush (Scirpus juncoides Roxb.); assay: Test Example 1: herbicidal effect by soil application to paddy field; conditions: paddy field soil application; active ingredient 1,000 g per 1 hectare; wettable powder added dropwise to water surface the day after sowing; examined on the 21st day after application
How it was run: (§1)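 Plants were sown in flooded (3 cm) paddy soil and evaluated for herbicidal effect 21 days after soil application in a greenhouse.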

[2] = test system: early watergrass (Echinochloa oryzicola Vasing); assay: as above; conditions: paddy field soil application; active ingredient 1,000 g per 1 hectare; wettable powder added dropwise to water surface the day after sowing; examined on the 21st day after application
How it was run: as §1

[3] = test system: heartshape false pickerelweed (Monochoria vaginalis (Burm.f.) C.Presl); assay: as above; conditions: paddy field soil application; active ingredient 1,000 g per 1 hectare; wettable powder added dropwise to water surface the day after sowing; examined on the 21st day after application
How it was run: as §1

[4] = test system: barnyardgrass (Echinochloa crus-galli (L.) P. Beauv. var. crus-galli); assay: Test Example 2: herbicidal effect by soil application to upland field; conditions: soil surface spray, upland field soil, 1,000 g active ingredient per hectare, 21st day after application
How it was run: (§2)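 In this soil-application test, sown and soil-covered pots are sprayed uniformly with the formulation diluted in water, giving 1,000 g of active ingredient per ha in a volume of 1,000 L per ha. Plants then grow in a greenhouse for 21 days before herbicidal scoring by a standard scale.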

[5] = test system: green foxtail (Setaria viridis (L.) P. Beauv.); assay: as above; conditions: soil surface spray, upland field soil, 1,000 g active ingredient per hectare, 21st day after application
How it was run: as §2

[6] = test system: slender amaranth (Amaranthus viridis L.); assay: as above; conditions: soil surface spray, upland field soil, 1,000 g active ingredient per hectare, 21st day after application
How it was run: as §2

[7] = test system: velvetleaf (Abutilon theophrasti medicus); assay: as above; conditions: soil surface spray, upland field soil, 1,000 g active ingredient per hectare, 21st day after application
How it was run: as §2

[8] = test system: barnyardgrass (Echinochloa crus-galli (L.) P. Beauv. var. crus-galli); assay: Test Example 3: herbicidal effect by application to upland field (foliage treatment); conditions: foliage treatment, plants grown two weeks, 1,000 g active ingredient per hectare, 14th day after application
How it was run: (§3)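 Field-soil pots sown with the four weed species and grown two weeks in a greenhouse, then sprayed over the whole plant with wettable powder in water at 1,000 g active ingredient/ha in 1,000 L/ha. Herbicidal effect scored against a rating standard 14 days after treatment.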

[9] = test system: green foxtail (Setaria viridis (L.) P. Beauv.); assay: as above; conditions: foliage treatment, plants grown two weeks, 1,000 g active ingredient per hectare, 14th day after application
How it was run: as §3

[10] = test system: slender amaranth (Amaranthus viridis L.); assay: as above; conditions: foliage treatment, plants grown two weeks, 1,000 g active ingredient per hectare, 14th day after application
How it was run: as §3

[11] = test system: velvetleaf (Abutilon theophrasti medicus); assay: as above; conditions: foliage treatment, plants grown two weeks, 1,000 g active ingredient per hectare, 14th day after application
How it was run: as §3

Structure (SMILES): CS(=O)(=O)CCn1c(C(F)(F)F)ccc(C(=O)C2=C(O)CCCC2=O)c1=O [I-67]
- herbicidal effect, Scirpus juncoides Roxb. [1]: 5 (90% or more of herbicidal effect and crop phytotoxicity)
- herbicidal effect, Echinochloa oryzicola Vasing [2]: 5 (90% or more of herbicidal effect and crop phytotoxicity)
- herbicidal effect, Monochoria vaginalis (Burm. f.) C. Presl [3]: 5 (90% or more of herbicidal effect and crop phytotoxicity)
- herbicidal effect (index), Barnyardgrass [4]: 5 (90% or more of herbicidal effect and crop phytotoxicity)
- herbicidal effect (index), Green Foxtail [5]: 5 (90% or more of herbicidal effect and crop phytotoxicity)
- herbicidal effect (index), Slender Amaranth [6]: 5 (90% or more of herbicidal effect and crop phytotoxicity)
- herbicidal effect (index), Velvetleaf [7]: 5 (90% or more of herbicidal effect and crop phytotoxicity)
- herbicidal effect (index), Barnyardgrass [8]: 5 (90% or more of herbicidal effect and crop phytotoxicity)
- herbicidal effect (index), Green Foxtail [9]: 5 (90% or more of herbicidal effect and crop phytotoxicity)
- herbicidal effect (index), Slender Amaranth [10]: 5 (90% or more of herbicidal effect and crop phytotoxicity)
- herbicidal effect (index), Velvetleaf [11]: 5 (90% or more of herbicidal effect and crop phytotoxicity)

Structure (SMILES): C[S+]([O-])CCCn1c(C(F)(F)F)ccc(C(=O)C2=C(O)CCCC2=O)c1=O (centres unmarked) [I-70]
- herbicidal effect, Scirpus juncoides Roxb. [1]: 5 (90% or more of herbicidal effect and crop phytotoxicity)
- herbicidal effect, Echinochloa oryzicola Vasing [2]: 5 (90% or more of herbicidal effect and crop phytotoxicity)
- herbicidal effect, Monochoria vaginalis (Burm. f.) C. Presl [3]: 5 (90% or more of herbicidal effect and crop phytotoxicity)
- herbicidal effect (index), Barnyardgrass [4]: 5 (90% or more of herbicidal effect and crop phytotoxicity)
- herbicidal effect (index), Green Foxtail [5]: 5 (90% or more of herbicidal effect and crop phytotoxicity)
- herbicidal effect (index), Slender Amaranth [6]: 5 (90% or more of herbicidal effect and crop phytotoxicity)
- herbicidal effect (index), Velvetleaf [7]: 5 (90% or more of herbicidal effect and crop phytotoxicity)
- herbicidal effect (index), Barnyardgrass [8]: 5 (90% or more of herbicidal effect and crop phytotoxicity)
- herbicidal effect (index), Green Foxtail [9]: 5 (90% or more of herbicidal effect and crop phytotoxicity)
- herbicidal effect (index), Slender Amaranth [10]: 5 (90% or more of herbicidal effect and crop phytotoxicity)
- herbicidal effect (index), Velvetleaf [11]: 5 (90% or more of herbicidal effect and crop phytotoxicity)

Structure (SMILES): CS(=O)(=O)CCCn1c(C(F)(F)F)ccc(C(=O)C2=C(O)CCCC2=O)c1=O [I-71]
- herbicidal effect, Scirpus juncoides Roxb. [1]: 5 (90% or more of herbicidal effect and crop phytotoxicity)
- herbicidal effect, Echinochloa oryzicola Vasing [2]: 5 (90% or more of herbicidal effect and crop phytotoxicity)
- herbicidal effect, Monochoria vaginalis (Burm. f.) C. Presl [3]: 5 (90% or more of herbicidal effect and crop phytotoxicity)
- herbicidal effect (index), Barnyardgrass [4]: 5 (90% or more of herbicidal effect and crop phytotoxicity)
- herbicidal effect (index), Green Foxtail [5]: 5 (90% or more of herbicidal effect and crop phytotoxicity)
- herbicidal effect (index), Slender Amaranth [6]: 5 (90% or more of herbicidal effect and crop phytotoxicity)
- herbicidal effect (index), Velvetleaf [7]: 5 (90% or more of herbicidal effect and crop phytotoxicity)
- herbicidal effect (index), Barnyardgrass [8]: 5 (90% or more of herbicidal effect and crop phytotoxicity)
- herbicidal effect (index), Green Foxtail [9]: 5 (90% or more of herbicidal effect and crop phytotoxicity)
- herbicidal effect (index), Slender Amaranth [10]: 5 (90% or more of herbicidal effect and crop phytotoxicity)
- herbicidal effect (index), Velvetleaf [11]: 5 (90% or more of herbicidal effect and crop phytotoxicity)

Structure (SMILES): O=C1CCCC(O)=C1C(=O)c1ccc(C(F)(F)F)n(-c2ccccc2)c1=O [I-72, 2-[1,2-dihydro-2-oxo-1-phenyl-6-(trifluoromethyl)pyridine-3-carbonyl]-3-hydroxy-2-cyclohexen-1-one]
- herbicidal effect, Scirpus juncoides Roxb. [1]: 5 (90% or more of herbicidal effect and crop phytotoxicity)
- herbicidal effect, Echinochloa oryzicola Vasing [2]: 5 (90% or more of herbicidal effect and crop phytotoxicity)
- herbicidal effect, Monochoria vaginalis (Burm. f.) C. Presl [3]: 5 (90% or more of herbicidal effect and crop phytotoxicity)
- herbicidal effect (index), Barnyardgrass [4]: 5 (90% or more of herbicidal effect and crop phytotoxicity)
- herbicidal effect (index), Green Foxtail [5]: 5 (90% or more of herbicidal effect and crop phytotoxicity)
- herbicidal effect (index), Slender Amaranth [6]: 5 (90% or more of herbicidal effect and crop phytotoxicity)
- herbicidal effect (index), Velvetleaf [7]: 5 (90% or more of herbicidal effect and crop phytotoxicity)
- herbicidal effect (index), Barnyardgrass [8]: 5 (90% or more of herbicidal effect and crop phytotoxicity)
- herbicidal effect (index), Green Foxtail [9]: 5 (90% or more of herbicidal effect and crop phytotoxicity)
- herbicidal effect (index), Slender Amaranth [10]: 5 (90% or more of herbicidal effect and crop phytotoxicity)
- herbicidal effect (index), Velvetleaf [11]: 5 (90% or more of herbicidal effect and crop phytotoxicity)

Structure (SMILES): O=C1CCCC(O)=C1C(=O)c1ccc(C(F)(F)F)n(-c2ccccc2Cl)c1=O [I-73]
- herbicidal effect, Scirpus juncoides Roxb. [1]: 5 (90% or more of herbicidal effect and crop phytotoxicity)
- herbicidal effect, Echinochloa oryzicola Vasing [2]: 5 (90% or more of herbicidal effect and crop phytotoxicity)
- herbicidal effect, Monochoria vaginalis (Burm. f.) C. Presl [3]: 5 (90% or more of herbicidal effect and crop phytotoxicity)
- herbicidal effect (index), Barnyardgrass [4]: 5 (90% or more of herbicidal effect and crop phytotoxicity)
- herbicidal effect (index), Green Foxtail [5]: 5 (90% or more of herbicidal effect and crop phytotoxicity)
- herbicidal effect (index), Slender Amaranth [6]: 5 (90% or more of herbicidal effect and crop phytotoxicity)
- herbicidal effect (index), Velvetleaf [7]: 5 (90% or more of herbicidal effect and crop phytotoxicity)
- herbicidal effect (index), Barnyardgrass [8]: 5 (90% or more of herbicidal effect and crop phytotoxicity)
- herbicidal effect (index), Green Foxtail [9]: 4 (70 to less than 90% of herbicidal effect and crop phytotoxicity)
- herbicidal effect (index), Slender Amaranth [10]: 5 (90% or more of herbicidal effect and crop phytotoxicity)
- herbicidal effect (index), Velvetleaf [11]: 5 (90% or more of herbicidal effect and crop phytotoxicity)

Structure (SMILES): O=C1CCCC(O)=C1C(=O)c1ccc(C(F)(F)F)n(-c2cccc(Cl)c2)c1=O [I-74]
- herbicidal effect, Scirpus juncoides Roxb. [1]: 5 (90% or more of herbicidal effect and crop phytotoxicity)
- herbicidal effect, Echinochloa oryzicola Vasing [2]: 5 (90% or more of herbicidal effect and crop phytotoxicity)
- herbicidal effect, Monochoria vaginalis (Burm. f.) C. Presl [3]: 5 (90% or more of herbicidal effect and crop phytotoxicity)
- herbicidal effect (index), Barnyardgrass [4]: 5 (90% or more of herbicidal effect and crop phytotoxicity)
- herbicidal effect (index), Green Foxtail [5]: 5 (90% or more of herbicidal effect and crop phytotoxicity)
- herbicidal effect (index), Slender Amaranth [6]: 5 (90% or more of herbicidal effect and crop phytotoxicity)
- herbicidal effect (index), Velvetleaf [7]: 5 (90% or more of herbicidal effect and crop phytotoxicity)
- herbicidal effect (index), Barnyardgrass [8]: 5 (90% or more of herbicidal effect and crop phytotoxicity)
- herbicidal effect (index), Green Foxtail [9]: 5 (90% or more of herbicidal effect and crop phytotoxicity)
- herbicidal effect (index), Slender Amaranth [10]: 5 (90% or more of herbicidal effect and crop phytotoxicity)
- herbicidal effect (index), Velvetleaf [11]: 5 (90% or more of herbicidal effect and crop phytotoxicity)

Structure (SMILES): O=C1CCCC(O)=C1C(=O)c1ccc(C(F)(F)F)n(-c2ccc(Cl)cc2)c1=O [I-75]
- herbicidal effect, Scirpus juncoides Roxb. [1]: 5 (90% or more of herbicidal effect and crop phytotoxicity)
- herbicidal effect, Echinochloa oryzicola Vasing [2]: 5 (90% or more of herbicidal effect and crop phytotoxicity)
- herbicidal effect, Monochoria vaginalis (Burm. f.) C. Presl [3]: 5 (90% or more of herbicidal effect and crop phytotoxicity)
- herbicidal effect (index), Barnyardgrass [4]: 5 (90% or more of herbicidal effect and crop phytotoxicity)
- herbicidal effect (index), Green Foxtail [5]: 5 (90% or more of herbicidal effect and crop phytotoxicity)
- herbicidal effect (index), Slender Amaranth [6]: 5 (90% or more of herbicidal effect and crop phytotoxicity)
- herbicidal effect (index), Velvetleaf [7]: 5 (90% or more of herbicidal effect and crop phytotoxicity)
- herbicidal effect (index), Barnyardgrass [8]: 5 (90% or more of herbicidal effect and crop phytotoxicity)
- herbicidal effect (index), Green Foxtail [9]: 5 (90% or more of herbicidal effect and crop phytotoxicity)
- herbicidal effect (index), Slender Amaranth [10]: 5 (90% or more of herbicidal effect and crop phytotoxicity)
- herbicidal effect (index), Velvetleaf [11]: 5 (90% or more of herbicidal effect and crop phytotoxicity)
